These results are taken from patent US9145351B2, “Azole derivatives, methods for producing the same, intermediate thereof, agro-horticultural agents” (KUREHA CORPORATION, priority 2009, dated 2015).

In test [1] the test system is Mucor sp. The experiment in a line: Plate medium assay, industrial material deteriorating microorganism, Mucor (Experimental Example 5). The class given is cell-based. As to conditions: treatment at 50 mg/l, PDA plate medium, read-out: growth inhibition grade. As for the experimental part:
(§1) In this Experimental Example, the fungicidal effects of the inventive compounds on various phytopathogenic fungi for plants and hazardous microorganism for industrial materials were examined by the methods described below. Each inventive compound was dissolved in 2 ml of dimethyl sulfoxide. 0.6 ml of this solution was added to 60 nil of a PDA medium (potato dextrose agar medium) at about 60 degrees C., which was mixed thoroughly in a 100-ml conical flask, and poured into a dish, where it was solidified, thereby obtaining a plate medium containing the inventive compound at 50 mg/L and 5 mg/L. On the other hand, a subject microorganism previously cultured on a plate medium was cut out using a cork borer whose diameter was 4 mm, and inoculated to the test compound-containing plate medium described above. […] The growth degree of the microorganism on the test compound-containing plate medium thus observed was compared with the growth degree of the microorganism in the untreated group, and % mycelial growth inhibition was calculated by the following equation. R=100(dc-dt)/dc wherein R=% mycelial extension inhibition, dc=flora diameter in untreated plate, dt=flora diameter in treated plate. The results obtained as described above were evaluated as one of the 5 grades according to the following criteria.

The test system of test [2] is Trichoderma sp. The test can be described thus: Plate medium assay, industrial material deteriorating microorganism, Trichoderma (Experimental Example 5). The test is classed as cell-based. As to conditions: treatment at 50 mg/l, PDA plate medium, read-out: growth inhibition grade. As to the method:
as §1

For test [3], the system named is Penicillium sp. The test can be described thus: Plate medium assay, industrial material deteriorating microorganism, Penicillium (Experimental Example 5). Conditions: treatment at 50 mg/l, PDA plate medium, read-out: growth inhibition grade. The test is classed as cell-based. As to the method: as §1
Test [4] has as its system Botrytis cinerea. The test can be described thus: Efficacy test against cucumber gray mold (Experimental Example 1). The test is classed as in vivo. Conditions: 96 h, four days after inoculation, read-out: Protective value; for pest or weed control at 50 µg/mL: 50 mg/L sprayed at 1,000 L/ha; for pest or weed control at 100 µg/mL: 100 mg/L sprayed at 1,000 L/ha. As to the method:
Onto a cucumber (variety:SHARP1) plant in its cotyledon phase grown using a square plastic pot (6 cm×6 cm), a wettable formulation such as Formulation Example 1 which was diluted and suspended in water at a certain concentrations (100 mg/L and 50 mg/L) was sprayed at a rate of 1,000 L/ha. The sprayed leaves were air-dried, and loaded with a paper disc (8 mm in diameter) soaked in a spore suspension of Botrytis cinerea, and kept at 20 degrees C. and a high humidity. Four days after inoculation, the cucumber gray mold lesion degree was investigated, and the protective value was calculated by the following equation. Protective value (%)=(1−mean lesion degree in sprayed plot/mean lesion degree in unsprayed plot)×100

Test [5] relates to Cladosporium sp. The experiment in a line: Plate medium assay, industrial material deteriorating microorganism, Cladosporium (Experimental Example 5). The class given is cell-based. Conditions: treatment at 50 mg/l, PDA plate medium, read-out: growth inhibition grade. As for the experimental part:
as §1

For test [6], the system named is Coriolus versicolor. The experiment in a line: Plate medium assay, wood denaturing microorganism Kawaratake (Experimental Example 5). The test is classed as cell-based. As to conditions: Trametes versicolor; treatment at 50 mg/l, PDA plate medium; read-out: growth inhibition grade. As for the experimental part:
as §1

The subject of test [7] is Aspergillus sp. The test can be described thus: Plate medium assay, industrial material deteriorating microorganism, Aspergillus (Experimental Example 5). The class given is cell-based. Conditions: treatment at 50 mg/l, PDA plate medium, read-out: growth inhibition grade. As to the method: as §1
The subject of test [8] is Tyromyces palustris. The experiment in a line: Plate medium assay, wood denaturing microorganism Oouzuratake (Experimental Example 5). The test is classed as cell-based. As to conditions: treatment at 50 mg/l, PDA plate medium; read-out: growth inhibition grade. As to the method:
as §1

The subject of test [9] is Septoria tritici. The experiment in a line: Microplate test of biocidal effect on wheat Septoria blotch (Experimental Example 4). The class given is cell-based. Conditions: Zymoseptoria tritici, 240 h; % mycelium growth inhibition, absorbance 550 nm, 20 degrees C. for about 10 days; read-out: activity level (EC80). As for the experimental part: A spore suspension of wheat Septoria blotch (Septoria tritici) (spore concentration: 1×10^6 cells/ml) was prepared, and subjected to 100-fold dilution with a PD medium. A flat 96-well microplate was provided and 1 microliter of the test compound solution formed by dissolution in dimethyl sulfoxide (DMSO) at a concentration 100 times the test concentration was dispensed to the microplate, and then 100 microliter of the medium containing the spore was added and stirred thoroughly. […] R=100×(dc−dt)/dc: R: % mycelium growth inhibition dc: Absorbance of non-treatment zone dt: Absorbance of treatment zone

The subject of test [10] is Curvularia sp. The test can be described thus: Plate medium assay, industrial material deteriorating microorganism, Curvularia (Experimental Example 5). The class given is cell-based. Conditions: treatment at 50 mg/l, PDA plate medium, read-out: growth inhibition grade. As to the method:
as §1

The test system of test [11] is Septoria tritici. The test can be described thus: Assay for fungicidal effect on Septoria tritici, plate medium 1.25 mg/L (Experimental Example 9). The test is classed as cell-based. As to the method: as §1, with “Each” for “In this Experimental Example, the fungicidal effects of the inventive compounds on various phytopathogenic fungi for plants and hazardous microorganism for industrial materials were examined by the methods described below. Each”, “R=100(dc−dt)/dc” for “R=100(dc-dt)/dc”, “criteria. […] In this Experimental Example, the fungicidal effects of the inventive compounds on Septoria tritici were examined by the methods described in the Experimental Example 5. In this Experimental Example, the inventive compounds were diluted at 1.25 mg/L.” for “criteria.”

Test [12] has as its system Aureobasidium sp. The experiment in a line: Plate medium assay, industrial material deteriorating microorganism, Aureobasidium (Experimental Example 5). The test is classed as cell-based. As to conditions: treatment at 50 mg/l, PDA plate medium, read-out: growth inhibition grade. As to the method:
as §1

Test [13] deals with Fusarium graminearum. The test can be described thus: whole plant or invertebrate. The class given is in vivo. Conditions: in Triticum aestivum, 168 h, read-out: Protective value.
Test [14] concerns Puccinia recondita. The experiment in a line: Efficacy test against wheat brown rust, 1 mg/L (Experimental Example 10). The test is classed as in vivo. Conditions: 1 g/ha (1 mg/L sprayed at 1,000 L/ha).

Structures are written as SMILES. A value given as a limit tells only on which side of the number the result lay.

Broadly, the inhibition is the share of the control response that was lost under treatment. The term EC80 denotes the point of the concentration-response curve where the effect stands at 80%. For the compound `C[C@]1(CCl)CC[C@@H](Cc2ccc(Cl)cc2)[C@]1(O)Cn1cncn1` (racemic) [Compound I-1, (1RS,2SR,5SR)-5-(4-chlorobenzyl)-2-chloromethyl-2-methyl-1-(1H-1,2,4-triazol-1-ylmethyl)cyclopentanol], the inhibition at 50 µg/mL in [1], in test [2], in test [3], in test [5], in test [6] and in [7] was 60 to 80% in each case. Moreover, the inhibition at 50 µg/mL in test [8], in [10] and in test [12] was 60 to 80% in each case. Further, the pest or weed control at 50 µg/mL in test [4] was ≥ 80%. For the same compound, the pest or weed control at 100 µg/mL in [4] and in test [13] was ≥ 80% throughout. Besides, the EC80 in [9] is ≤ 0.2 µg/mL. For the same compound, in [11] (Zymoseptoria tritici, read-out: growth inhibition grade), the inhibition at 1.25 µg/mL was > 80%. The pest or weed control at 500 µg/mL in test [13] was ≥ 90%. For the same compound, the lesion degree in [14] is 0.5 (Less than 1%).

As for `C[C@]1(CCl)CC[C@@H](Cc2cccc(Cl)c2)[C@]1(O)Cn1cncn1` (racemic) [Compound I-74, (1RS,2SR,5SR)-5-(3-chlorobenzyl)-2-chloromethyl-2-methyl-1-(1H-1,2,4-triazol-1-ylmethyl)cyclopentanol], the inhibition at 50 µg/mL in test [1], in test [2], in [3], in [5], in [6] and in test [7] was 60 to 80% in each case. The inhibition at 50 µg/mL in test [8], in test [10] and in [12] was 60 to 80% each time. The pest or weed control at 50 µg/mL in test [4] is ≥ 80%. The pest or weed control at 100 µg/mL in [4] and in test [13] was ≥ 80% throughout. In addition, the EC80 in [9] is ≤ 0.2 µg/mL. Also, the pest or weed control at 500 µg/mL in test [13] was ≥ 90%.

Regarding `C[C@@]1(CCCl)CC[C@@H](Cc2ccc(Cl)cc2)[C@]1(O)Cn1cncn1` (racemic) [Compound I-104, (1RS,2SR,5SR)-5-(4-chlorobenzyl)-2-(2-chloroethyl)-2-methyl-1-(1H-1,2,4-triazol-1-ylmethyl)cyclopentanol], the inhibition at 50 µg/mL in test [1], in [2], in test [3], in [5], in test [6] and in [7] was 60 to 80% each time. Moreover, the inhibition at 50 µg/mL in test [8], in test [10] and in test [12] was 60 to 80% throughout. The pest or weed control at 50 µg/mL in test [4] was ≥ 80%. Also, the pest or weed control at 100 µg/mL in [4] and in test [13] was ≥ 80% each time. Moreover, the EC80 in [9] is ≤ 0.2 µg/mL. The pest or weed control at 500 µg/mL in test [13] is ≥ 90%.

With `C[C@]1(CBr)CC[C@@H](Cc2ccc(F)cc2)[C@]1(O)Cn1cncn1` (racemic) [Compound I-601, (1RS,2SR,5SR)-2-bromomethyl-5-(4-fluorobenzyl)-2-methyl-1-(1H-1,2,4-triazol-1-ylmethyl)cyclopentanol], the inhibition at 50 µg/mL in [1], in [2], in test [3], in test [5], in test [6] and in [7] was 60 to 80% each time. The inhibition at 50 µg/mL in test [8], in [10] and in test [12] was 60 to 80% throughout. The pest or weed control at 50 µg/mL in test [4] was ≥ 80%. In addition, the pest or weed control at 100 µg/mL in [4] and in test [13] was ≥ 80% each time. Further, the EC80 in test [9] is ≤ 0.2 µg/mL. Besides, in test [13], the pest or weed control at 500 µg/mL is ≥ 90%.

Consider `C[C@]1(CBr)CC[C@@H](Cc2ccccc2)[C@]1(O)Cn1cncn1` (racemic) [Compound I-602, (1RS,2SR,5SR)-2-bromomethyl-5-benzyl-2-methyl-1-(1H-1,2,4-triazol-1-ylmethyl)cyclopentanol], for which the inhibition at 50 µg/mL in [1], in test [2], in [3], in test [5], in [6] and in test [7] was 60 to 80% throughout. Also, the inhibition at 50 µg/mL in [8], in test [10] and in [12] was 60 to 80% in each case. Further, the pest or weed control at 50 µg/mL in test [4] was ≥ 80%. Moreover, the pest or weed control at 100 µg/mL in test [4] and in test [13] was ≥ 80% in each case. For the same compound, the EC80 in [9] was ≤ 0.2 µg/mL. In test [13], the pest or weed control at 500 µg/mL was ≥ 90%.

Turning to `CC1(C)CCC(Cc2ccc(Cl)cc2)C1(O)Cn1ncnc1S` (racemic) [compound (2)], in test [11], the growth inhibition grade is given as 1 (% Mycerial growth inhibition of less than 20%). In addition, the lesion degree in test [14] is listed as 5 (50% or higher).

In the case of `C[C@]1(CCl)CC[C@@H](Cc2ccc(F)cc2F)[C@]1(O)Cn1cncn1` (relative stereo) [Compound I-88], the growth inhibition grade in test [11] is reported as 5 (% Mycerial growth inhibition of 80% or higher). Moreover, the lesion degree in [14] was 0.5 (Less than 1%).
